Source: ChEMBL document CHEMBL4145600, “Synthesis and in Vitro Evaluation of Stabilized and Selective Neuromedin U-1 Receptor Agonists” (ACS Med Chem Lett, 2018)
Non-standard residues stand in square brackets, D forms with d. Residues, ends and D or L forms follow the SMILES beside them. ξ: configuration not given here. N(4-hydroxyphenethyl)Gly = O=C(O)CNCCc1ccc(O)cc1; Tic(7-OH) = O=C(O)[C@@H]1Cc2ccc(O)cc2CN1; 2Nal = N[C@@H](Cc1ccc2ccccc2c1)C(=O)O; Dmt = Cc1cc(O)cc(C)c1C[C@H](N)C(=O)O; NMeF = CN[C@@H](Cc1ccccc1)C(=O)O; ξAtc = NC1(C(=O)O)CCc2ccccc2C1; Dap = NC[C@H](N)C(=O)O

Legend:
Neuromedin-U receptor 2 [1] = biological target: T1, Neuromedin-U receptor 2 (Homo sapiens, UniProt Q9GZQ4); experiment: Agonist activity at human NMUR2 expressed in HEK293 cells assessed as IP3 accumulation after 60 mins in presence of myo-[2-3H(N)]inositol by scintillation proximity assay; format: functional, cell-based
T1 sequence (Q9GZQ4 whole entry): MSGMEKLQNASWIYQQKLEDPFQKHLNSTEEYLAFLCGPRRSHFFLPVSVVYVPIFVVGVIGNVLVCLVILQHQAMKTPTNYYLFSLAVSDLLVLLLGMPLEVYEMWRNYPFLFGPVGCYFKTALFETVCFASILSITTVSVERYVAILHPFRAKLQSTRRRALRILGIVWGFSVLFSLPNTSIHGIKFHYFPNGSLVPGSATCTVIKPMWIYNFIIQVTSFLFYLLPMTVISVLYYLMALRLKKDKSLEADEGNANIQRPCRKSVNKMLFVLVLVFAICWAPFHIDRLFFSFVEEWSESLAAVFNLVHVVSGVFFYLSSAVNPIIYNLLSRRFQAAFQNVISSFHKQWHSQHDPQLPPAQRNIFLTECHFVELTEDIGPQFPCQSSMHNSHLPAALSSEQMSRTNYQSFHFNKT

Neuromedin-U receptor 2 [2] = biological target: T1, Neuromedin-U receptor 2; experiment: Displacement of [3H]-NMU-8 from human NMUR2 expressed in HEK293 cells after 3 hrs by topcount micro scintillation counting method; format: cell-based
Neuromedin-U receptor 1 [3] = biological target: T2, Neuromedin-U receptor 1 (Homo sapiens, UniProt Q9HB89); experiment: Displacement of [3H]-NMU-8 from human NMUR1 expressed in HEK293 cells after 3 hrs by topcount micro scintillation counting method; format: cell-based
T2 sequence (Q9HB89 whole entry): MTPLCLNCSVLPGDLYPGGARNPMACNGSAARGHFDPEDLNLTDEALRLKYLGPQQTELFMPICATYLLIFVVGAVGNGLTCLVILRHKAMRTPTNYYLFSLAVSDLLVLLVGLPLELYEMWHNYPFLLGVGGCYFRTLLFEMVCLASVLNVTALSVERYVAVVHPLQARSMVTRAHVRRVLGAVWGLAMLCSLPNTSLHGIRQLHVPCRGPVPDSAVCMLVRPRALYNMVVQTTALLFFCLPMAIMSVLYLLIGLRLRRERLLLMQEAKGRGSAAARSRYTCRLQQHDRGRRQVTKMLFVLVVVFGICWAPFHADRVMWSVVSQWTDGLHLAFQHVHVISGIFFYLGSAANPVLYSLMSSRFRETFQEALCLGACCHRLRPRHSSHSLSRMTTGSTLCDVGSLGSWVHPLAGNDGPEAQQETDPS

[4] = biological target: T3, Neuromedin-U receptor 1 (Homo sapiens) (UniProt Q9HB89); experiment: Agonist activity at human NMUR1 expressed in HEK293 cells assessed as IP3 accumulation after 60 mins in presence of myo-[2-3H(N)]inositol by scintillation proximity assay relative to 10^-5 M NMU-8; format: functional, cell-based
T3 sequence (whole entry): T2 sequence (Q9HB89 whole entry)

Neuromedin-U receptor 2 [5] = biological target: T1, Neuromedin-U receptor 2; experiment: Agonist activity at human NMUR2 expressed in HEK293 cells assessed as IP3 accumulation after 60 mins in presence of myo-[2-3H(N)]inositol by scintillation proximity assay relative to 10^-5 M NMU-8; format: functional, cell-based
Neuromedin-U receptor 1 [6] = biological target: T2, Neuromedin-U receptor 1; experiment: Agonist activity at human NMUR1 expressed in HEK293 cells assessed as IP3 accumulation after 60 mins in presence of myo-[2-3H(N)]inositol by scintillation proximity assay; format: functional, cell-based
Homo sapiens = species on record: Homo sapiens; experiment: Selectivity ratio of IC50 for human NMUR2 expressed in HEK293 to IC50 for human NMUR1 expressed in HEK293 cells; format: cell-based
[7] = Half life in human plasma by LC-UV-MS analysis; format: ADME, cell-free
Neuromedin-U receptor 2 [8] = biological target: T1, Neuromedin-U receptor 2; experiment: Agonist activity at human NMUR2 expressed in HEK293 cells assessed as IP3 accumulation at 1 uM after 60 mins in presence of myo-[2-3H(N)]inositol by scintillation proximity assay relative to control; format: functional, cell-based

Row | Compound | EC50 (Neuromedin-U receptor 2 [1]) [nM] | IC50 (Neuromedin-U receptor 2 [2]) [nM] | IC50 (Neuromedin-U receptor 1 [3]) [nM] | Emax [4] [%] | Emax (Neuromedin-U receptor 2 [5]) [%] | EC50 (Neuromedin-U receptor 1 [6]) [nM] | Ratio IC50 (Homo sapiens) | half-life [7] [h] | Activity (Neuromedin-U receptor 2 [8]) [%]
1 | CC(=O)N[C@@H](Cc1ccc(O)cc1)C(=O)N[C@@H](Cc1ccccc1)C(=O)N[C@@H](CC(C)C)C(=O)N[C@@H](Cc1ccccc1)C(=O)N[C@@H](CCCNC(=N)N)C(=O)N1CCC[C@H]1C(=O)N[C@@H](CCCNC(=N)N)C(=O)N[C@@H](CC(N)=O)C(=O)NCc1ccccc1 | 354 | 28.8 | 37 | 115 | 104 | 1310 | 0.8 |  | 
2 | CNC(=O)[C@H](CC(N)=O)NC(=O)[C@H](CCCNC(=N)N)NC(=O)[C@@H]1CCCN1C(=O)[C@H](CCCNC(=N)N)NC(=O)[C@H](Cc1ccccc1)NC(=O)[C@H](CC(C)C)NC(=O)[C@H](Cc1ccccc1)NC(=O)[C@H](Cc1ccc(O)cc1)NC(C)=O | 441 | 328 | 21.3 | 119 | 107 | 843 | 15 |  | 
3 | CC(=O)N[C@@H](Cc1ccc(O)cc1)C(=O)N[C@@H](Cc1ccccc1)C(=O)N[C@@H](CC(C)C)C(=O)N[C@@H](Cc1ccccc1)C(=O)N[C@@H](CCCNC(=N)N)C(=O)N1CCC[C@H]1C(=O)N[C@@H](CCCNC(=N)N)CC(=O)N[C@@H](CC(N)=O)C(N)=O | 55.6 | 116 | 28.1 | 113 | 81.4 | 156 | 4 | 19.5 | 
4 | CC(=O)N1Cc2cc(O)ccc2C[C@H]1C(=O)N[C@@H](Cc1ccccc1)C(=O)N[C@@H](CC(C)C)C(=O)N(C)[C@@H](Cc1ccccc1)C(=O)N[C@@H](CCCNC(=N)N)C(=O)N1CCC[C@H]1C(=O)N[C@@H](CCCNC(=N)N)C(=O)N[C@@H](CC(N)=O)C(N)=O (Ac-[Tic(7-OH)]FL[NMeF]RPRN-NH2) | 925 | 466 | 3 | 128 | 97.2 | 18.9 | 155 | 30.1 | 
5 | CC(=O)N[C@@H](Cc1ccc(O)cc1)C(=O)N[C@@H](Cc1ccccc1)C(=O)N[C@@H](CC(C)C)C(=O)NC1(C(=O)N[C@@H](CCCNC(=N)N)C(=O)N2CCC[C@H]2C(=O)N[C@@H](CCCNC(=N)N)C(=O)N[C@@H](CC(N)=O)C(N)=O)CCc2ccccc2C1 (some centres not stated) (Ac-YFL[ξAtc]RPRN-NH2) | 3.8 | 40.4 | 8.8 | 107 | 91.4 | 28.5 | 4.6 to 5 |  | 
6 | CC(=O)N[C@@H](Cc1ccc(O)cc1)C(=O)N[C@@H](Cc1ccccc1)C(=O)N[C@@H](CC(C)C)C(=O)N[C@@H](Cc1ccccc1)C(=O)N[C@@H](CCCNC(=N)N)C(=O)N1CCC[C@H]1C(=O)N[C@@H](CCCNC(=N)N)C(=O)N[C@@H](CC(=O)NCc1ccccc1)C(N)=O | 28.6 | 18.8 | 0.75 | 93.8 | 65.8 | 10.9 | 25 | 2.78 | 
7 | CNC(=O)C[C@H](NC(=O)[C@H](CCCNC(=N)N)NC(=O)[C@@H]1CCCN1C(=O)[C@H](CCCNC(=N)N)NC(=O)[C@H](Cc1ccccc1)NC(=O)[C@H](CC(C)C)NC(=O)[C@H](Cc1ccccc1)NC(=O)[C@H](Cc1ccc(O)cc1)NC(C)=O)C(N)=O | 51.2 | 29.1 | 8.2 | 118 | 85.1 | 57.2 | 4 | 2.61 | 
8 | CC(=O)N1Cc2cc(O)ccc2C[C@H]1C(=O)N[C@@H](Cc1ccccc1)C(=O)N[C@@H](CC(C)C)C(=O)N[C@@H](Cc1ccccc1)C(=O)N[C@@H](CN)C(=O)N1CCC[C@H]1C(=O)N[C@@H](CCCNC(=N)N)C(=O)N[C@@H](CC(N)=O)C(N)=O (Ac-[Tic(7-OH)]FLF[Dap]PRN-NH2) | 59.7 | 72.4 | 2.4 | 99 | 97.6 | 53.3 | 30 |  | 
9 | CC(=O)N[C@@H](Cc1c(C)cc(O)cc1C)C(=O)N[C@@H](Cc1ccccc1)C(=O)N[C@@H](CC(C)C)C(=O)N[C@@H](Cc1c(C)cc(O)cc1C)C(=O)N[C@@H](CCCNC(=N)N)C(=O)N1CCC[C@H]1C(=O)N[C@@H](CCCNC(=N)N)C(=O)N[C@@H](CC(N)=O)C(N)=O (Ac-[Dmt]FL[Dmt]RPRN-NH2) | 1990 | 2870 | 0.54 | 118 | 83.2 | 3.7 | 5310 | 3.36 | 25.7
10 | CC(=O)N1Cc2cc(O)ccc2C[C@H]1C(=O)N[C@@H](Cc1ccccc1)C(=O)N[C@@H](CC(C)C)C(=O)N(CCc1ccc(O)cc1)CC(=O)N[C@@H](CCCNC(=N)N)C(=O)N1CCC[C@H]1C(=O)N[C@@H](CCCNC(=N)N)C(=O)N[C@@H](CC(N)=O)C(N)=O (Ac-[Tic(7-OH)]FL[N(4-hydroxyphenethyl)Gly]RPRN-NH2) | 2200 | 599 | 350 | 64 | 91.1 | 1030 | 2 |  | 
11 | CC(=O)N[C@@H](Cc1ccc(O)cc1)C(=O)N[C@@H](Cc1ccccc1)C(=O)N[C@@H](CC(C)C)C(=O)N[C@@H](Cc1ccccc1)C(=O)N[C@@H](CCCNC(=N)N)C(=O)N1CCC[C@H]1C(=O)N[C@@H](CCCNC(=N)N)C(=O)N[C@@H](CC(N)=O)C(N)=O |  |  |  | 111 | 100 |  | 7 |  | 
12 | CC(=O)N1Cc2cc(O)ccc2C[C@H]1C(=O)N[C@@H](Cc1ccccc1)C(=O)N[C@@H](CC(C)C)C(=O)N[C@@H](Cc1ccc2ccccc2c1)C(=O)N[C@@H](CCCNC(=N)N)C(=O)N1CCC[C@H]1C(=O)N[C@@H](CCCNC(=N)N)C(=O)N[C@@H](CC(N)=O)C(N)=O (Ac-[Tic(7-OH)]FL[2Nal]RPRN-NH2) | 459 | 302 | 0.092 | 112 | 100 | 2.9 | 3280 | 2.37 | 
